Here are results for 21 molecules from US20260098026A1, “M4 ACTIVATORS/MODULATORS AND USES THEREOF” (Cerevel Therapeutics, LLC, priority 2022, published 2026).

Assay [1] concerns the target T1, M3 muscarinic acetylcholine receptor (mAChR) (Homo sapiens, UniProt P20309).
T1 construct: expressed in transfected cells; host or cells: CHO-K1
The assay is described as follows: FLIPR calcium assay (Fluo 8), M3-overexpressing CHO-K1 cells. It is filed as cell-based. Conditions: FLIPR calcium. Put shortly:
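CHO-K1 cells overexpressing each human receptor seeded at 15,000 per well, grown overnight at 37° C., 5% CO2, then loaded with Fluo-8 for 30 min. Compounds in HBSS added and calcium response read on FLIPR; EC50 and Emax calculated per subtype.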

Assay [2] has as its target T2, M4 mAChR (Homo sapiens, UniProt P08173).
T2 construct: expressed in transfected cells; host or cells: CHO-K1
T2 sequence (P08173 1-479): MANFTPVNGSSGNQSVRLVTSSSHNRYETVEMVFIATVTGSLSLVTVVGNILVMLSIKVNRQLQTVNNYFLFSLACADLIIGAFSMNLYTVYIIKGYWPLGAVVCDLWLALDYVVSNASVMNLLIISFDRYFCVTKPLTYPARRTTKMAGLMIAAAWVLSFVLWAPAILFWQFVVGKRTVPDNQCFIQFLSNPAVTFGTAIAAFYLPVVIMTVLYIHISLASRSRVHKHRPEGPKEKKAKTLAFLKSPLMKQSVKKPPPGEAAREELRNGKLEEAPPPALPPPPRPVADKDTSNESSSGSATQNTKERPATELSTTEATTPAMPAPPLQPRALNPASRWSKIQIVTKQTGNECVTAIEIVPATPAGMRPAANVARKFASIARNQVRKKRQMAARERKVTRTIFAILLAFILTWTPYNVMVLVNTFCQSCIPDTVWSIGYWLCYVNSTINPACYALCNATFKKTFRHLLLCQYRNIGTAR
The assay is described as follows: cAMP TR-FRET assay with forskolin, M4-overexpressing CHO-K1 cells. It is filed as cell-based. As to conditions: cAMP TR-FRET with forskolin. In outline: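 CHO-K1 cells overexpressing the receptor were stimulated with forskolin to raise cAMP, so that Gi-mediated agonist decreases could be measured. cAMP was quantified by TR-FRET competition between cellular cAMP and labelled donor for anti-cAMP antibody, giving potency and efficacy.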

T1 sequence (P20309 whole entry): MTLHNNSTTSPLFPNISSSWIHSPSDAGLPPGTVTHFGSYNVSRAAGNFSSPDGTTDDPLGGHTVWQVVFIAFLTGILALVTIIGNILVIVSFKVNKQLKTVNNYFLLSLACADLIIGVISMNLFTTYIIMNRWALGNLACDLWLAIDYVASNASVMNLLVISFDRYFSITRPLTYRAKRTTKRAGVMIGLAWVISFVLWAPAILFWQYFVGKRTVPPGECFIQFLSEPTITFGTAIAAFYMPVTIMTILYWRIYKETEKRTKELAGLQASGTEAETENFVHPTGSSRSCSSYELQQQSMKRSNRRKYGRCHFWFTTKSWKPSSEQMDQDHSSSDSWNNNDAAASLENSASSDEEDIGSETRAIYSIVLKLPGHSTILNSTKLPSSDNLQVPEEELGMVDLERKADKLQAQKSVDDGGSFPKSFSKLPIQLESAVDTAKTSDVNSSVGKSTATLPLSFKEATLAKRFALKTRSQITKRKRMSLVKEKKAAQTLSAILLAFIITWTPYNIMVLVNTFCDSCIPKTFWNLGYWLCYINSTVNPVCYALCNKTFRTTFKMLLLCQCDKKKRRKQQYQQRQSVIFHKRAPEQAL

Consider `CCOC(=O)N1CC2(CC[C@@H](N3CCN(c4cc(F)cnc4-c4ccnc(F)c4C)CC3)C2)C1` [Compound A114], for which, in assay [1], the EC50 is > 10 µM. Further, in assay [2], the Emax lay in the range of 80 to 100%.
With `CCOC(=O)N1CC2(CC[C@@H](N3CCN(c4cc(F)cnc4-c4ccc(F)cc4O)CC3)C2)C1` [Compound A115], the EC50 in assay [1] is > 10 µM. In assay [2], this molecule came in with an Emax of 80 to 100%.
For the molecule `CCOC(=O)N1CC2(CC[C@@H](N3CCN(c4cc(F)cnc4-c4ccc(C)nc4OC)CC3)C2)C1` [Compound A116], the EC50 in assay [1] is > 10 µM. The Emax in assay [2] fell in the range of 80 to 100%.
In the case of `CCOC(=O)N1CC2(CC[C@@H](N3CCN(c4cc(F)cnc4-c4cc(F)ccc4CO)CC3)C2)C1` [Compound A117], the EC50 in assay [1] was > 10 µM. For the same molecule, the Emax in assay [2] lay in the range of 80 to 100%.
On the same counts, the results for `CCOC(=O)N1CC2(CC[C@@H](N3CCN(c4cc(F)cnc4-c4cccc(F)c4O)CC3)C2)C1` [Compound A118] are > 10 µM and 80 to 100%.
For the molecule `CCOC(=O)N1CC2(CC[C@@H](N3CCN(c4cc(F)cnc4-c4cc(F)nc(F)c4)CC3)C2)C1` [Compound A119], in assay [1], the half-maximal effective concentration (EC50) is > 10 µM. Further, in assay [2], the Emax fell in the range of 80 to 100%.
The like results for `CCOC(=O)N1CC2(CC[C@@H](N3CCN(c4cc(F)cnc4-c4ccn(C)n4)CC3)C2)C1` [Compound A120] were, in that order, > 10 µM and 80 to 100%.
The like results for `CCOC(=O)N1CC2(CC[C@@H](N3CCN(c4cc(F)cnc4-c4ccn(CC)n4)CC3)C2)C1` [Compound A121] were, in that order, > 10 µM and 80 to 100%.
On the same counts, the results for `CCOC(=O)N1CC2(CC[C@@H](N3CCN(c4cc(F)cnc4-c4cncc(OCC)c4)CC3)C2)C1` [Compound A122] are > 10 µM and 80 to 100%.
In the case of `CCOC(=O)N1CC2(CC[C@@H](N3CCN(c4cc(F)cnc4-c4ccc(=O)n(C)c4)CC3)C2)C1` [Compound A123], in assay [1], the concentration for a half-maximal effect (EC50) is > 10 µM. This molecule had an Emax in assay [2] of 80 to 100%.
On the same counts, the results for `CCOC(=O)N1CC2(CC[C@@H](N3CCN(c4cc(F)cnc4-c4cnc(N5CCC5)nc4)CC3)C2)C1` [Compound A124] are > 10 µM and 80 to 100%.
On the same counts, the results for `CCOC(=O)N1CC2(CC[C@@H](N3CCN(c4cc(F)cnc4-c4cc(C)nc(F)c4)CC3)C2)C1` [Compound A125] are > 10 µM and 80 to 100%.
As to `CCOC(=O)N1CC2(CC[C@@H](N3CCN(c4cc(F)cnc4-c4cnn(C5COC5)c4)CC3)C2)C1` [Compound A126], the EC50 in assay [1] is > 10 µM. Further, in assay [2], the Emax fell in the range of 80 to 100%.
In the case of `CCOC(=O)N1CC2(CC[C@@H](N3CCN(c4cc(F)cnc4-c4cc(O)ccc4F)CC3)C2)C1` [Compound A127], the EC50 in assay [1] was > 10 µM. The Emax in assay [2] was in the range of 80 to 100%.
On to `CCOC(=O)N1CC2(CC[C@@H](N3CCN(c4cc(F)cnc4-c4cccc(F)n4)CC3)C2)C1` [Compound A128], for which the EC50 in assay [1] was > 10 µM. For the same molecule, the Emax in assay [2] lay within 80 to 100%.
Regarding `CCOC(=O)N1CC2(CC[C@@H](N3CCN(c4cc(F)cnc4-c4cnc5c(cnn5C)c4)CC3)C2)C1` [Compound A129], the EC50 in assay [1] was > 10 µM. Further, the Emax in assay [2] was 80 to 100%.
On to `CCOC(=O)N1CC2(CC[C@@H](N3CCN(c4cc(F)cnc4-c4ccc5c(c4)OCO5)CC3)C2)C1` [Compound A130], for which the EC50 in assay [1] is > 10 µM. The molecule further displayed an Emax in assay [2] of 80 to 100%.
Regarding `CCOC(=O)N1CC2(CC[C@@H](N3CCN(c4cc(F)cnc4-c4ccc5c(c4)ncn5C)CC3)C2)C1` [Compound A131], the EC50 in assay [1] is > 10 µM. In addition, the Emax in assay [2] is 80 to 100%.
On to `CCOC(=O)N1CC2(CC[C@@H](N3CCN(c4cc(F)cnc4-c4cnc(OCC)nc4)CC3)C2)C1` [Compound A132], for which the EC50 in assay [1] is > 10 µM. In assay [2], this molecule returned an Emax of 80 to 100%.
In the case of `CCOC(=O)N1CC2(CC[C@@H](N3CCN(c4cc(F)cnc4-c4cccc(OC)n4)CC3)C2)C1` [Compound A133], the half-maximal effective concentration (EC50) in assay [1] was > 10 µM. The Emax in assay [2] was 19 to 49.9%.
On the same counts, the results for `CCOC(=O)N1CC2(CC[C@@H](N3CCN(c4cc(F)cnc4-c4ccc(CO)c(C)c4)CC3)C2)C1` [Compound A134] are > 10 µM and 80 to 100%.
